Legend:
Polygonum convolvulus = assay: Post-emergence herbicidal effect; type: in vivo; details: 1280 g/ha, visual rating after about 3 weeks
Description: (§1) POLCO: Polygonum convolvulus SETVI: Setaria viridis 2. Post-Emergence Herbicidal Effect and Crop Plant Compatibility Seeds of monocotyledonous and dicotyledonous weed and crop plants are placed in sandy loam in wood-fiber pots, covered with soil and cultivated in a greenhouse under good growth conditions. 2 to 3 weeks after sowing, the test plants are treated at the one-leaf stage. The compounds according to the invention, formulated in the form of wettable powders (WP) or as emulsion concentrates (EC), are then sprayed as aqueous suspension or emulsion at a water application rate of 600 to 800 I/ha (converted) with the addition of 0.2% of wetting agent onto the green parts of the plants. After the test plants have been kept in the greenhouse under optimum growth conditions for about 3 weeks, the activity of the preparations is rated visually in comparison to untreated controls (herbicidal activity in percent (%): 100% activity=the plants have died, 0% activity=like control plants).

[1] = logp (HCOOH), physicochemical characterization; details: HCOOH
Stellaria media = assay: Post-emergence herbicidal effect; type: in vivo; details: 1280 g/ha, visual rating after about 3 weeks
Description: as §1, with “STEME: Stellaria media VERPE: Veronica persica” for “POLCO: Polygonum convolvulus SETVI: Setaria viridis”

Alopecurus myosuroides = assay: Pre-emergence herbicidal effect; type: in vivo; details: 1280 g/ha, visual assessment after 3 weeks
Description: (§2) 1. Pre-Emergence Herbicidal Effect and Crop Plant Compatibility Seeds of monocotyledonous and dicotyledonous weed plants and crop plants are placed in wood-fiber pots in sandy loam and covered with soil. The inventive compounds, formulated in the form of wettable powders (WP) or as emulsion concentrates (EC), are then applied to the surface of the covering soil as an aqueous suspension or emulsion at a water application rate of 600 to 800 I/ha (converted) with addition of 0.2% wetting agent. After the treatment, the pots are placed in a greenhouse and kept under good growth conditions for the test plants. The damage to the test plants is assessed visually after a test period of 3 weeks by comparison with untreated controls (herbicidal activity in percent (%): 100% action=the plants have died, 0% action=like control plants). ABUTH: Abutilon theophrasti ALOMY: Alopecurus myosuroides

Abutilon theophrasti = assay: Pre-emergence herbicidal effect; type: in vivo; details: 1280 g/ha, visual assessment after 3 weeks
Description: as §2

Viola tricolor = assay: Post-emergence herbicidal effect; type: in vivo; details: 1280 g/ha, visual rating after about 3 weeks
Description: as §1, with “VIOTR: Viola tricolor” for “POLCO: Polygonum convolvulus SETVI: Setaria viridis”

Amaranthus retroflexus = assay: Post-emergence herbicidal effect; type: in vivo; details: 1280 g/ha, visual rating after about 3 weeks
Description: as §1, with “AMARE: Amaranthus retroflexus ECHCG: Echinochloa crus-galli” for “POLCO: Polygonum convolvulus SETVI: Setaria viridis”

Veronica persica = assay: Post-emergence herbicidal effect; type: in vivo; details: 1280 g/ha, visual rating after about 3 weeks
Description: as §1, with “STEME: Stellaria media VERPE: Veronica persica” for “POLCO: Polygonum convolvulus SETVI: Setaria viridis”

| SMILES | herbicidal activity POLCO (Polygonum convolvulus) [%] | logp (HCOOH) [1] | herbicidal activity STEME (Stellaria media) [%] | herbicidal activity ALOMY (Alopecurus myosuroides) [%] | herbicidal activity ABUTH (Abutilon theophrasti) [%] | herbicidal activity VIOTR (Viola tricolor) [%] | herbicidal activity AMARE (Amaranthus retroflexus) [%] | herbicidal activity VERPE (Veronica persica) [%] |
| --- | --- | --- | --- | --- | --- | --- | --- | --- |
| CCc1ccc2c(c1)C(Nc1cnc(S(C)(=O)=O)nc1)CCO2 (racemic) [compound 65] | 80 | wax-like; logp (HCOOH): 2.54; 1H-NMR (CDCl3, 400 MHZ, δ in ppm): 1.20 (t, 3H, | 90 | 90 | 100 | – | – | – |
| CCc1ccc2c(c1)C(Nc1cnc(S(C)(=O)=O)nc1C(=O)O)CCO2 (racemic) [compound 68] | 80 | – | – | 100 | 100 | 80 | – | – |
| Cc1ccc2c(c1)[C@H](Nc1cnc(S(C)(=O)=O)nc1)[C@@H](C)C2 [compound 134] | 90 | – | 100 | 100 | 100 | 90 | 80 | 90 |
